biological target: T1, PHD2 (Homo sapiens, UniProt Q9GZT9); assay: PHD2 inhibition assay (time resolved fluorescence, HIF-1α peptide hydroxylation / VHL complex detection); type: biochemical; settings: FLAG-tagged full length PHD2; 0.2 μM 2-oxoglutarate, 0.5 μM HIF-1α peptide
T1 construct: FLAG-tagged full length PHD2 expressed in and purified from baculovirus-infected Sf9 cells; FLAG; made in house; host or cells: baculovirus-infected Sf9 cells
Description: To each well of a 96-well plate was added 1 μL of test compound in DMSO and 20 μl of assay buffer (50 mM Iris pH 7.4/0.01% Tween-20/0.1 mg/ml bovine serum albumin/10 μM ferrous sulfate/1 mM sodium ascorbate/20 μg/ml catalase) containing 0.15 μg/ml FLAG-tagged full length PHD2 expressed in and purified from baculovirus-infected Sf9 cells. After a 30 min preincubation at room temperature, the enzymatic reactions were initiated by the addition of […] of substrates (final concentrations of 0.2 μM 2-oxoglutarate and 0.5 μM HIF-1α peptide biotinyl-DLDLEMLAPYIPMDDDFQL (SEQ ID NO:1)). After 2 hr at room temperature, the reactions were terminated and signals were developed by the addition of a 25 μL quench/detection mix to a final concentration of 1 mM ortho-phenanthroline, 0.1 mM EDTA, 0.5 nM anti-(His)6 LANCE reagent (Perkin-Elmer Life Sciences), 100 nM AF647-labeled streptavidin (Invitrogen), and 2 μg/ml (His)-6-VHL complex (S. Tan(2001) Protein Expr. Purif. 21, 224-234). The ratio of time resolved fluorescence signals at 665 and 620 nm was determined, and percent inhibition was calculated relative to an uninhibited control sample run in parallel.

T1 sequence (Q9GZT9 whole entry, species assumed): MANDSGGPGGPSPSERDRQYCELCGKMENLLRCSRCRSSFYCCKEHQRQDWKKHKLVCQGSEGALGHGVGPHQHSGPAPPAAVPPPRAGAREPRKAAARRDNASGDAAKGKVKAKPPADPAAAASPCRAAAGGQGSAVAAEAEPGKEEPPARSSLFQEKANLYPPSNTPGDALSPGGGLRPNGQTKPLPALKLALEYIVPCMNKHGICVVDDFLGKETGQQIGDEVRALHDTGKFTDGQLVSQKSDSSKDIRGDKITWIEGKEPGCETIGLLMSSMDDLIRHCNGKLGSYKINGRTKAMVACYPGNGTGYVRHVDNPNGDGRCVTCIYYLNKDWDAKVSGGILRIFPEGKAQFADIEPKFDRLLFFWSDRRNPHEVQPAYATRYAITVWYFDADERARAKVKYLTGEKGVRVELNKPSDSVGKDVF

IC50 | Compound
100 to 10000 nM | Oc1nc(-n2cccn2)ncc1-c1cnn(Cc2ccccc2)c1 [Compound 11-2, 5-(1-benzyl-1H-pyrazol-4-yl)-2-(1H-pyrazol-1-yl)pyrimidin-4-ol]
100 to 10000 nM | Cc1ccc(S(=O)(=O)NC(=O)c2cnc(-c3cccnn3)nc2O)cc1 [Compound 13-1, 4-hydroxy-2-(pyridazin-3-yl)-N-tosylpyrimidine-5-carboxamide]
20 to 100 nM | CC(C)(C)CCOC(=O)Nc1cnc(-n2cccn2)nc1O [Compound 5-15, 3,3-dimethylbutyl 4-hydroxy-2-(1H-pyrazol-1-yl)pyrimidin-5-ylcarbamate]
100 to 10000 nM | CC(C)NC(=O)Cc1cnc(-n2cccn2)nc1O [Compound 12-3, 2-(4-hydroxy-2-(1H-pyrazol-1-yl)pyrimidin-5-yl)-N-isopropylacetamide]
100 to 10000 nM | Oc1nc(-n2cccn2)ncc1-c1cnn(-c2ccccc2)c1 [Compound 11-1, 5-(1-phenyl-1H-pyrazol-4-yl)-2-(1H-pyrazol-1-yl)pyrimidin-4-ol]
20 to 100 nM | O=C(Nc1cnc(-n2cccn2)nc1O)OC1CCCC1 [Compound 5-11, cyclopentyl 4-hydroxy-2-(1H-pyrazol-1-yl)pyrimidin-5-ylcarbamate]
20 to 100 nM | O=C(Nc1cnc(-n2cccn2)nc1O)OCCc1ccccc1 [Compound 5-16, phenethyl 4-hydroxy-2-(1H-pyrazol-1-yl)pyrimidin-5-ylcarbamate]
20 to 100 nM | O=C(Nc1cnc(-n2cccn2)nc1O)OC1CCCCC1 [Compound 5-10, cyclohexyl 4-hydroxy-2-(1H-pyrazol-1-yl)pyrimidin-5-ylcarbamate]
100 to 10000 nM | CC(C)(C)NC(=O)Nc1cnc(-n2cccn2)nc1O [Compound 5-6, ert-butyl-3-(4-hydroxy-2-(1H-pyrazol-1-yl)pyrimidin-5-yl)urea]
20 to 100 nM | O=C(Nc1cnc(-c2ccccn2)nc1O)C(c1ccccc1)c1ccccc1 [Compound 10-1, N-(4-hydroxy-2-(pyridin-2-yl)pyrimidin-5-yl)-2,2-diphenylacetamide]
100 to 10000 nM | O=C(Nc1ccccc1)Nc1cnc(-n2cccn2)nc1O [Compound 5-1, 1-(4-hydroxy-2-(1H-pyrazol-1-yl)pyrimidin-5-yl)-3-phenylurea]
100 to 10000 nM | Oc1nc(-n2cccn2)ncc1-c1ccccc1 [Compound 11-3, 5-phenyl-2-(1H-pyrazol-1-yl)pyrimidin-4-ol]

More lines, now with the values behind:

Compound | IC50
COc1cccc(CC(=O)Nc2cnc(-n3cccn3)nc2O)c1 [Compound 3-31, N-(4-hydroxy-2-(1H-pyrazol-1-yl)pyrimidin-5-yl)-2-(3-methoxyphenyl)acetamide] | 0.5 to 20 nM
O=C(Nc1cnc(-n2cccn2)nc1O)Oc1ccc(-c2ccccc2)cc1 [Compound 5-17, biphenyl-4-yl 4-hydroxy-2-(1H-pyrazol-1-yl)pyrimidin-5-ylcarbamate] | 100 to 10000 nM
O=S(=O)(Cc1ccc(Cl)cc1)Nc1cnc(-n2cccn2)nc1O [Compound 4-2, 1-(4-chlorophenyl)-N-[4-hydroxy-2-(1H-pyrazol-1-yl)pyrimidin-5-yl]methanesulfonamide] | 20 to 100 nM
O=C(CCc1ccccc1)Nc1cnc(-n2cccn2)nc1O [Compound 3-44, N-(4-hydroxy-2-(1H-pyrazol-1-yl)pyrimidin-5-yl)-3-phenylpropanamide] | 20 to 100 nM
COc1cccc(C(=O)Nc2cnc(-n3cccn3)nc2O)c1 [Compound 3-12, N-(4-hydroxy-2-(1H-pyrazol-1-yl)pyrimidin-5-yl)-3-methoxybenzamide] | 20 to 100 nM
CC(C)(C)OC(=O)N1CCC(C(=O)Nc2cnc(-n3cccn3)nc2O)C1 (stereo not shown) [Compound 3-51, tert-butyl 3-(4-hydroxy-2-(1H-pyrazol-1-yl)pyrimidin-5-ylcarbamoyl)pyrrolidine-1-carboxylate] | 20 to 100 nM
O=C(Nc1cnc(-n2cccn2)nc1O)c1ccc(C(F)(F)F)cc1 [Compound 3-5, 4-(trifluoromethyl)-N-(4-hydroxy-2-(1H-pyrazol-1-yl)pyrimidin-5-yl)benzamide] | 20 to 100 nM
CCC(C(=O)Nc1cnc(-n2cccn2)nc1O)c1ccccc1 (stereo not shown) [Compound 3-34, N-(4-hydroxy-2-(1H-pyrazol-1-yl)pyrimidin-5-yl)-2-phenylbutanamide] | 0.5 to 20 nM
COc1ccccc1C(=O)Nc1cnc(-n2cccn2)nc1O [Compound 3-11, N-(4-hydroxy-2-(1H-pyrazol-1-yl)pyrimidin-5-yl)-2-methoxybenzamide] | 20 to 100 nM
O=S(=O)(Nc1cnc(-n2cccn2)nc1O)c1ccc(Cl)cc1 [Compound 4-1, 4-chloro-N-[4-hydroxy-2-(1H-pyrazol-1-yl)pyrimidin-5-yl]benzenesulfonamide] | 20 to 100 nM
O=C(CC1CCCCC1)Nc1cnc(-n2cccn2)nc1O [Compound 3-48, 2-cyclohexyl-N-(4-hydroxy-2-(1H-pyrazol-1-yl)pyrimidin-5-yl)acetamide] | 0.5 to 20 nM
COc1ccc(C(=O)Nc2cnc(-n3cccn3)nc2O)cc1 [Compound 3-13, N-(4-hydroxy-2-(1H-pyrazol-1-yl)pyrimidin-5-yl)-4-methoxybenzamide] | 20 to 100 nM
O=C(Cc1ccc2c(c1)OCO2)Nc1cnc(-n2cccn2)nc1O [Compound 3-40, 2-(benzo[d][1,3]dioxol-5-yl)-N-(4-hydroxy-2-(1H-pyrazol-1-yl)pyrimidin-5-yl)acetamide] | 0.5 to 20 nM
O=C(Nc1cnc(-n2cccn2)nc1O)Oc1ccc2ccccc2c1 [Compound 5-18, naphthalen-2-yl 4-hydroxy-2-(1H-pyrazol-1-yl)pyrimidin-5-ylcarbamate] | 100 to 10000 nM
CS(=O)(=O)c1ccccc1C(=O)Nc1cnc(-n2cccn2)nc1O [Compound 3-14, N-(4-hydroxy-2-(1H-pyrazol-1-yl)pyrimidin-5-yl)-2-(methylsulfonyl)benzamide] | 100 to 10000 nM
N#Cc1ccccc1C(=O)Nc1cnc(-n2cccn2)nc1O [Compound 3-7, 2-cyano-N-(4-hydroxy-2-(1H-pyrazol-1-yl)pyrimidin-5-yl)benzamide] | 100 to 10000 nM

Compound | IC50
O=C(Nc1cnc(-n2cccn2)nc1O)c1ccc(Oc2ccccc2)cc1 [Compound 3-22, N-(4-hydroxy-2-(1H-pyrazol-1-yl)pyrimidin-5-yl)-4-phenoxybenzamide] | 0.5 to 20 nM
O=C(Nc1cnc(-n2cccn2)nc1O)c1ccc(-c2ccccc2)cc1 [Compound 3-19, N-[4-hydroxy-2-(1H-pyrazol-1-yl)pyrimidin-5-yl]biphenyl-4-carboxamide] | 0.5 to 20 nM
O=C(Nc1cnc(-n2cccn2)nc1O)c1ccccc1-c1ccccc1 [Compound 3-17, N-[4-hydroxy-2-(1H-pyrazol-1-yl)pyrimidin-5-yl]biphenyl-2-carboxamide] | 20 to 100 nM
COc1ccc(CC(=O)Nc2cnc(-n3cccn3)nc2O)cc1 [Compound 3-32, N-(4-hydroxy-2-(1H-pyrazol-1-yl)pyrimidin-5-yl)-2-(4-methoxyphenyl)acetamide] | 0.5 to 20 nM
CS(=O)(=O)c1ccc(C(=O)Nc2cnc(-n3cccn3)nc2O)cc1 [Compound 3-16, N-(4-hydroxy-2-(1H-pyrazol-1-yl)pyrimidin-5-yl)-4-(methylsulfonyl)benzamide] | 20 to 100 nM
CCC(C)C(C(=O)Nc1cnc(-n2cccn2)nc1O)c1ccccc1 (stereo not shown) [Compound 3-36, N-(4-hydroxy-2-(1H-pyrazol-1-yl)pyrimidin-5-yl)-3-methyl-2-phenylpentanamide] | 0.5 to 20 nM
CC(C(=O)Nc1cnc(-n2cccn2)nc1O)c1ccccc1 (stereo not shown) [Compound 3-33, N-(4-hydroxy-2-(1H-pyrazol-1-yl)pyrimidin-5-yl)-2-phenylpropanamide] | 0.5 to 20 nM
O=C(Nc1cnc(-n2cccn2)nc1O)C1CCc2ccccc2C1 (stereo not shown) [Compound 3-54, 1,2,3,4-tetrahydro-N-(4-hydroxy-2-(1H-pyrazol-1-yl)pyrimidin-5-yl)naphthalene-2-carboxamide] | 20 to 100 nM
CC(C)C(C(=O)Nc1cnc(-n2cccn2)nc1O)c1ccccc1 (stereo not shown) [Compound 3-35, N-(4-hydroxy-2-(1H-pyrazol-1-yl)pyrimidin-5-yl)-3-methyl-2-phenylbutanamide] | 20 to 100 nM
O=C(CCCc1ccccc1)Nc1cnc(-n2cccn2)nc1O [Compound 3-45, N-(4-hydroxy-2-(1H-pyrazol-1-yl)pyrimidin-5-yl)-4-phenylbutanamide] | 0.5 to 20 nM
O=C(Nc1cnc(-n2cccn2)nc1O)Oc1ccccc1 [Compound 5-9, phenyl 4-hydroxy-2-(1H-pyrazol-1-yl)pyrimidin-5-ylcarbamate] | 100 to 10000 nM
O=C(Cc1ccc(C(F)(F)F)cc1)Nc1cnc(-n2cccn2)nc1O [Compound 3-29, 2-(4-(trifluoromethyl)phenyl)-N-(4-hydroxy-2-(1H-pyrazol-1-yl)pyrimidin-5-yl)acetamide] | 0.5 to 20 nM
O=C(Nc1cnc(-n2cccn2)nc1O)c1ccc(Cl)cc1 [Compound 3-3, 4-chloro-N-(4-hydroxy-2-(1H-pyrazol-1-yl)pyrimidin-5-yl)benzamide] | 20 to 100 nM
O=C(Nc1cnc(-n2cccn2)nc1O)c1cccc(Oc2ccccc2)c1 [Compound 3-21, N-(4-hydroxy-2-(1H-pyrazol-1-yl)pyrimidin-5-yl)-3-phenoxybenzamide] | 0.5 to 20 nM
O=C(Nc1cnc(-n2cccn2)nc1O)c1ccccc1Oc1ccccc1 [Compound 3-20, N-(4-hydroxy-2-(1H-pyrazol-1-yl)pyrimidin-5-yl)-2-phenoxybenzamide] | 20 to 100 nM

Reference: patent US9006433B2, “Substituted pyrimidines” (Merck Sharp & Dohme Corp., priority 2010, dated 2015)
